Results reported in patent US9885713B2, “Diagnosis and treatment of mycobacteria infections” (priority 2013, dated 2018).

B1: Gp-31: recombinant His-tagged Gp-31 protein of mycobacteriophage L5 (SEQ ID NO: 5) (protein)
chain: MHHHHHHSSGLVPRGSGMKETAAAKFERQHMDSPDLGTDDDDKAMADIGSEFVTYPTNPLEAIGADGAFEIGGGDWSFGQDYTEQAIRALFTMPAVTMENALGLLEEHLLKLPLEALQGFKDMIPDWVEGAFDTVTGAVQAIMNALQDGPLFLKFAEFQLFLQRLLNNPAEVIGEIPQTLIDGLQDALNTVNNTIQTIVDMLLQALGITPEGELIDRIFDLSDEMEWLQTAASNAATGIQDTWNKFWGALTGRVPDQDQTVAEPAERIGELAGTTSANSSAIAELQRRLDNQQNAGGVAGGDDFERLNISGWDIRYSNGSSGRGYYRADGHQLVWMDEGNQQNTATFVRTNPADEKTATDYQKMTLVVGTISGEVQTVFPPQGGSHTRLWVRVNDNAPTVGITDGVFVEIGGVSKAQIGYRRNGNDTFVGSMVDCTWGAGSIFALTAGTANGAEKFEVSKNGPVLATWSDDGVVSAMGANYRRWGWEGQARNRNLGQGTPNSVTRVTITDNDPTGAGGGAVNVGGDVVGVLPIENGGTGASTASAARTALGIDDLVEDMSDVVRGSVEGLPLIPKIWVGTEAQYTALATKDQSTLYFRTA
modifications: His tag

Each molecule was assayed against T1, Gp6 (Mycobacterium phage L5, UniProt Q05278, L15P) (assay: Direct ESI-MS assay of carbohydrate binding). Settings: not given.
T1 construct: pET-30a(+) vector-encoded N-terminal leader (additional residues up to the EcoRI site) (N); made in house; host or cells: E. coli BL21(DE3)
T1 sequence (Q05278 other isoform, or with tags, fused parts or gaps L15P): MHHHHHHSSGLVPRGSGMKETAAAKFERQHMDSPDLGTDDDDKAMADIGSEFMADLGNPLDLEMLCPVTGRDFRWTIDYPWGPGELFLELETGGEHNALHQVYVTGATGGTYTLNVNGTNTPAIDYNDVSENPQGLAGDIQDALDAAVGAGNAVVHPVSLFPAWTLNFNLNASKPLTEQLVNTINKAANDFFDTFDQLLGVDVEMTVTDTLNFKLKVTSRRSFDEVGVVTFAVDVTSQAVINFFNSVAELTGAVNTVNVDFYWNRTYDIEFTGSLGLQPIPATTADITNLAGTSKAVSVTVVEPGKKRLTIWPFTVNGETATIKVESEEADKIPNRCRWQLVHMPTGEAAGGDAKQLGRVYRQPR
Parameters: species or system mycobacteriophage L5
Experimental: Chemically synthesized fragments of mycobacterial arabinans and phenolic glycolypids were used to test the carbohydrate binding ability of recombinant Gp6. Association constants (Ka) for Gp6 binding to carbohydrate ligands were measured using the direct electrospray ionization mass spectrometry (ESI-MS) assay. The assay is based on the direct detection and quantification of the abundance of ligand-bound and unbound protein ions in the gas phase. All binding measurements were carried out at 25° C. and pH 7.2 using a 9.4T ApexQe FTICR mass spectrometer (Bruker, Billerica, Mass.). ESI was performed in aqueous ammonium acetate (100 mM) solutions prepared from stock solutions of protein and oligosaccharide. The single chain variable fragment (scFv) of the monoclonal antibody Se155-4 was used as reference protein to distinguish specific from nonspecific ligand binding with the protein during the ESI-MS measurements.
For O=C(NCCCCCCCCO[C@H]1O[C@H](CO[C@H]2O[C@H](CO[C@H]3O[C@H](CO)[C@@H](O)[C@@H]3O[C@@H]3O[C@H](CO[C@H]4O[C@H](CO)[C@@H](O)[C@H](O)[C@@H]4O)[C@@H](O)[C@@H]3O)[C@@H](O)[C@@H]2O)[C@@H](O)[C@@H]1O)C(F)(F)F [compound 1, α-Manp-(1→5)-β-Araf-(1→2)-α-Araf-(1→5)-α-Araf-(1→5)-α-Araf-octyl-NHCOCF3], the Kd was 256 µM. Molecule O=C(NCCCCCCCCO[C@H]1O[C@H](CO[C@H]2O[C@H](CO[C@H]3O[C@H](CO)[C@@H](O)[C@@H]3O[C@@H]3O[C@H](CO[C@H]4O[C@H](CO)[C@@H](O)[C@H](O)[C@@H]4O[C@H]4O[C@H](CO)[C@@H](O)[C@H](O)[C@@H]4O)[C@@H](O)[C@@H]3O)[C@@H](O)[C@@H]2O)[C@@H](O)[C@@H]1O)C(F)(F)F [compound 2, α-Manp-(1→2)-α-Manp-(1→5)-β-Araf-(1→2)-α-Araf-(1→5)-α-Araf-(1→5)-α-Araf-octyl-NHCOCF3] has a Kd of 227 µM. O=C(NCCCCCCCCO[C@H]1O[C@H](CO[C@H]2O[C@H](CO[C@H]3O[C@H](CO)[C@@H](O)[C@@H]3O[C@@H]3O[C@H](CO)[C@@H](O)[C@@H]3O)[C@@H](O[C@H]3O[C@H](CO)[C@@H](O)[C@@H]3O[C@@H]3O[C@H](CO)[C@@H](O)[C@@H]3O)[C@@H]2O)[C@@H](O)[C@@H]1O)C(F)(F)F [compound 3, β-Araf-(1→2)-α-Araf-(1→5)[β-Araf-(1→2)-α-Araf-(1→3)]-α-Araf-(1→5)-α-Araf-octyl-NHCOCF3] showed a Kd of 278 µM. With O=C(NCCCCCCCCO[C@H]1O[C@H](CO[C@H]2O[C@H](CO[C@H]3O[C@H](CO)[C@@H](O)[C@@H]3O)[C@@H](O)[C@@H]2O)[C@@H](O)[C@@H]1O)C(F)(F)F [compound 5, α-Araf-(1→5)-α-Araf-(1→5)-α-Araf-octyl-NHCOCF3] the Kd was 132 µM. O=C(NCCCCCCCCO[C@H]1O[C@H](CO[C@H]2O[C@H](CO[C@H]3O[C@H](CO)[C@@H](O)[C@@H]3O)[C@@H](O[C@H]3O[C@H](CO)[C@@H](O)[C@@H]3O)[C@@H]2O)[C@@H](O)[C@@H]1O)C(F)(F)F [compound 6, α-Araf-(1→5)-[α-Araf-(1→3)]-α-Araf-(1→5)-α-Araf-octyl-NHCOCF3] gave a Kd of 417 µM. O=C(NCCCCCCCCO[C@H]1O[C@H](CO[C@H]2O[C@H](CO)[C@@H](O[C@H]3O[C@H](CO)[C@@H](O)[C@@H]3O[C@@H]3O[C@H](CO)[C@@H](O)[C@@H]3O)[C@@H]2O)[C@@H](O)[C@@H]1O)C(F)(F)F [compound 7, β-Araf-(1→2)-α-Araf-(1→3)-α-Araf-(1→5)-α-Araf-octyl-NHCOCF3] was tested, and the Kd was 909 µM. O=C(NCCCCCCCCO[C@H]1O[C@H](CO[C@H]2O[C@H](CO[C@H]3O[C@H](CO[C@H]4O[C@H](CO)[C@@H](O)[C@@H]4O)[C@@H](O)[C@@H]3O)[C@@H](O)[C@@H]2O)[C@@H](O)[C@@H]1O)C(F)(F)F [compound 8, α-Araf-(1→5)-α-Araf-(1→5)-α-Araf-(1→5)-a-Araf-octyl-NHCOCF3] showed a Kd of 145 µM. With O=C(NCCCCCCCCO[C@H]1O[C@H](CO[C@H]2O[C@H](CO[C@H]3O[C@H](CO)[C@@H](O)[C@@H]3O[C@@H]3O[C@H](CO[C@H]4O[C@H](CO)[C@@H](O)[C@H](O)[C@@H]4O[C@H]4O[C@H](CO)[C@@H](O)[C@H](O)[C@@H]4O[C@H]4O[C@H](CO)[C@@H](O)[C@H](O)[C@@H]4O)[C@@H](O)[C@@H]3O)[C@@H](O)[C@@H]2O)[C@@H](O)[C@@H]1O)C(F)(F)F [compound 9, α-Manp-(1→2)-α-Manp-(1→2)-α-Manp-(1→5)-β-Araf-(1→2)-α-Araf-(1→5)-α-Araf-(1→5)-α-Araf-octyl-NHCOCF3] the Kd was 385 µM. Molecule COc1ccc(O[C@@H]2O[C@@H](C)[C@H](O)[C@@H](O[C@@H]3O[C@@H](C)[C@H](O)[C@@H](O[C@@H]4O[C@@H](C)[C@@H](OC)[C@@H](OC)[C@@H]4OC)[C@H]3O)[C@H]2OC)cc1 [compound 10, 2,3,4-tri-O-CH3-α-Fucp-(1→3)-α-Rhap(1→3)-2-O-CH3-α-RhapOPMP] has a Kd of 1000 ± 500 µM. COc1ccc(O[C@@H]2O[C@@H](C)[C@H](O)[C@@H](O[C@@H]3O[C@@H](C)[C@H](O)[C@@H](O[C@@H]4O[C@@H](C)[C@@H](OC)[C@@H](O)[C@@H]4OC)[C@H]3O)[C@H]2O)cc1 [compound 11, 2,4-di-O-CH3-α-Fucp-(1→3)-α-Rhap(1→3)-α-Rhap-OPMP] was tested, and the Kd was 333 µM. Molecule COc1ccc(O[C@@H]2O[C@@H](C)[C@H](O)[C@@H](O[C@@H]3O[C@@H](C)[C@H](O)[C@@H](O[C@@H]4O[C@@H](C)[C@@H](OC)[C@@H](OC)[C@@H]4OC)[C@H]3O)[C@H]2O)cc1 [compound 12, 2,3,4-tri-O-CH3-α-Fucp-(1→3)-α-Rhap(1→3)-α-RhapOpPMP] has a Kd of 286 µM. COC[C@H]1O[C@@H](O[C@@H]2[C@@H](OC)[C@@H](OC)[C@H](O[C@H]3[C@H](Oc4ccc(OC)cc4)O[C@@H](C)[C@H](O)[C@H]3OC)O[C@H]2C)[C@H](O)[C@@H](OC)[C@@H]1O [compound 13, 3,6-di-O-CH3-β-Glcp-(1→4)-2,3-di-O-CH3-α-Rhap-(1→2)-3-O-CH3-α-RhapOPMP] showed a Kd of 417 µM.

Same assay, conditions: 25° C., pH 7.2, direct ESI-MS assay
“6-O-CH3-β-Glcp-(1→4)-2,3-di-O-CH3-α-Rhap-(1→2)-3-O-CH3-α-RhapOPMP [compound 14]” was tested, and the “Association constants (Ka) for Gp6” value was “NB^3”. O=C(NCCCCCCCCO[C@H]1O[C@H](CO[C@H]2O[C@H](CO[C@H]3O[C@H](CO)[C@@H](O)[C@@H]3O[C@@H]3O[C@H](CO)[C@@H](O)[C@@H]3O)[C@@H](O)[C@@H]2O)[C@@H](O)[C@@H]1O)C(F)(F)F [compound 4, β-Araf-(1→2)-α-Araf-(1→5)-α-Araf-(1→5)-α-Araf-octyl-NHCOCF3] was tested, and the “Association constants (Ka) for Gp6” value was “NB^3”. With COc1ccc(OC2OC(C)C(O)C(OC3OC(C)C(O)C(O)C3O)C2OC)cc1 (stereo not drawn) [compound 15, α-Rhap-(1→3)-2-O-CH3-α-RhapOPMP] the “Association constants (Ka) for Gp6” value was “NB^3”.

What follows are molecules tested on Mycobacterium avium subsp. paratuberculosis ATCC 19851 (assay: Cell binding assay: protein immobilized on gold surface, capture by SEM and fluorescence microscopy). Settings: protein immobilized on gold surface, 20 μg/ml (Gp6 also 40 μg/ml).
Description: (§1) In order to assess mycophage and mycophage RBPs for their use as probes of MAP infection, Gp-10 and Gp-6 were immobilized using an established protocol (Singh et. al. Biosens. Bioelect. 26 131 (2010) and used for the specific bacterial capture. Gold Surfaces were modified by cysteamine hydrochloride followed by activation using 2% gluteraldehyde. The recombinant proteins Gp-10, Gp-6 and Gp-31 were immobilized over the surfaces in order to capture the host bacteria Mycobacterium avium subsp. paratuberculosis ATCC 19851 and Mycobacterium smegmatis mc^2155. Bacterial capture was confirmed by fluorescence microscopy and Scanning Electron Microscopy (SEM). Nonspecific attachment was prevented by using bovine serum albumin (BSA) as the blocking layer. A negative control was run in parallel where a similar gold surface was treated with all reagents, but they were not exposed to the recombinant phage proteins.
(§2) Proteins were immobilized onto cysteamine covered gold surfaces that were activated with glutaraldehyde according to the previously described protocol where RBP samples were used instead of whole phage particles. Briefly, the gold substrates were fabricated using piranha cleaned silicon substrates by sputtering a 25 nm thick gold layer. The gold substrates were sonicated in acetone, isopropanol, ethanol and MilliQ (Millipore) water for 5 min each prior to their use (Branson Ultrasonics 1510, 40 kHz frequency). The gold substrates were incubated overnight at 40° C. in a 50 mM solution of cysteamine hydrochloride (Sigma-Aldrich). The cysteamine self assembled monolayer (SAM) substrates were modified by 2% glutaraldehyde (Sigma-Aldrich) for 1 hr at room temperature and washed twice in PBS. These modified substrates were incubated in a 20 μg/ml solution of Gp10 (or Gp6) in PBS overnight at […]. The negative control substrate was incubated in PBS only. To block nonspecific binding of bacteria, the substrates were incubated in 1 mg/ml of bovine serum albumin (Sigma-Aldrich) and were washed twice in PBS. The protein covered substrates were exposed to 10^9 cfu/ml of mycobacterial cells in PBS for 1 hr at room temperature. The immobilized surfaces were washed in 0.05 Tween 20 (Sigma-Aldrich) before analysis. For fluorescence microscopy, the bacterial cells were stained with 50 μM resazurin (Sigma-Aldrich) for 20 min before exposure to the substrates covered with the immobilized proteins.
(§3) Bacterial cell binding to the gold surface covered with the immobilized protein was assessed as described previously. Scanning electron microscopy (SEM) and fluorescent microscopy (FM) were used to estimate the number of bacterial cells bound to the surfaces. The samples were fixed with 2% glutaraldehyde for 2 hrs at room temperature followed by a gradient of ethanol from 50% to 100% before SEM. Finally the samples were dried by nitrogen gas. SEM imaging was performed using a Hitachi S-4800/LEO 1430 microscope. Cells were prestained using 50 μM of resazurin stain (Sigma-Aldrich) for the FM-based binding assay. An Olympus IX81 microscope equipped with a FITC filter and a Roper Scientific Cool-Snaps HQ CCD Camera were Used to Record the FM Images. ImageJ Software (USA NIH) was used to analyze the microscopy images. Average numbers of cells bound to the surface are indicated on the basis of the assessment of the cell number, fields of view, and using 8 gold covered chips per test.
In the case of B1, the “capture/binding of MAP cells (in words)” value is reported as “no significant bacterial capture”.

What follows are molecules tested on Mycobacterium smegmatis mc^2155 in the same assay as above. Settings: protein immobilized on gold surface, 20 μg/ml.
Description: as §1, §2, §3
For B1, the “capture/binding of M. smegmatis cells (in words)” value was “no significant bacterial capture”.
